Results from patent US10597388B2, “Pyridazinone herbicides” (FMC CORPORATION, priority 2014, dated 2020).

Legend:
Test in all cases: Test D controlled growth environment herbicide test, pre- and postemergence
Type in all cases: in vivo
[1] = test system: foxtail, green (green foxtail, Setaria viridis)
In short: (§1)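 Species sown in silt loam and sprayed preemergence, or grown in peat-based medium to 2–18 cm (1- to 4-leaf stage) and sprayed postemergence, with compounds in non-phytotoxic solvent plus surfactant. Visual injury scored versus controls after 14–21 d in a controlled environment, 0 (no effect) to 100 (complete control).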

[2] = test system: lambsquarters (Chenopodium album)
In short: as §1

[3] = test system: windgrass (Apera spica-venti)
In short: as §1

[4] = test system: blackgrass (Alopecurus myosuroides)
In short: as §1

[5] = test system: field poppy (Papaver rhoeas)
In short: as §1

[6] = test system: chamomile (scentless chamomile, Matricaria inodora)
In short: as §1

[7] = test system: barley, winter (winter barley, Hordeum vulgare)
In short: as §1

[8] = test system: mustard, wild (wild mustard, Sinapis arvensis)
In short: as §1

[9] = test system: chickweed (common chickweed, Stellaria media)
In short: as §1

[10] = test system: pigweed (Amaranthus retroflexus)
In short: as §1

[11] = test system: bromegrass, downy (downy bromegrass, Bromus tectorum)
In short: as §1

[12] = test system: oat, wild (wild oat, Avena fatua)
In short: as §1

[13] = test system: wheat, winter (winter wheat, Triticum aestivum)
In short: as §1

[14] = test system: wheat, spring (spring wheat, Triticum aestivum)
In short: as §1

[15] = Postemergence, 31 g ai/ha, scale 0 to 100 (0 no effect, 100 complete control)
[16] = Postemergence, 125 g ai/ha, visual rating on scale 0 (no effect) to 100 (complete control), 14 to 21 d
[17] = Postemergence, 250 g ai/ha, scale 0 to 100 (0 no effect, 100 complete control)
[18] = Preemergence, 62 g ai/ha, scale 0 to 100 (0 no effect, 100 complete control)
[19] = Preemergence, 125 g ai/ha, scale 0 to 100 (0 no effect, 100 complete control)
[20] = Preemergence, 250 g ai/ha, scale 0 to 100, 0 no effect, 100 complete control
[21] = postemergence, 62 g ai/ha, scale 0 to 100, 0 no effect, 100 complete control

CCc1sc2c(C)cc(C)cc2c1-c1c(O)c(C)nn(C)c1=O [Compound 57]
Foxtail, Green plant response rating [1, 15]: 75 | Plant response rating, Foxtail, Green [1, 16]: 75 | Plant response rating, Foxtail, Green [1, 17]: 90 | Plant response rating (scale of 0 to 100), Foxtail, Green ([1]; Preemergence, 31 g ai/ha): 10 | Plant response rating, Foxtail, Green [1, 18]: 70 | Plant response rating, Foxtail, Green [1, 19]: 100 | Plant response rating, Foxtail, Green [1, 20]: 100 | Plant response rating, Foxtail, Green [1, 21]: 75 | Lambsquarters plant response rating [2, 15]: 75 | Plant response rating, Lambsquarters [2, 16]: 75 | Plant response rating, Lambsquarters [2, 17]: 85 | Plant response rating (scale of 0 to 100), Lambsquarters ([2]; Preemergence, 31 g ai/ha): 100 | Plant response rating, Lambsquarters [2, 18]: 100 | Plant response rating, Lambsquarters [2, 19]: 100 | Plant response rating, Lambsquarters [2, 20]: 100 | Plant response rating, Lambsquarters [2, 21]: 75 | Windgrass plant response rating [3, 15]: 10 | Plant response rating, Windgrass [3, 16]: 10 | Plant response rating, Windgrass [3, 17]: 15 | Plant response rating (scale of 0 to 100), Windgrass ([3]; Preemergence, 31 g ai/ha): 20 | Plant response rating, Windgrass [3, 18]: 35 | Plant response rating, Windgrass [3, 19]: 65 | Plant response rating, Windgrass [3, 20]: 80 | Plant response rating, Windgrass [3, 21]: 10 | Blackgrass plant response rating [4, 15]: 15 | Plant response rating, Blackgrass [4, 16]: 55 | Plant response rating, Blackgrass [4, 17]: 75 | Plant response rating (scale of 0 to 100), Blackgrass ([4]; Preemergence, 31 g ai/ha): 25 | Plant response rating, Blackgrass [4, 18]: 35 | Plant response rating, Blackgrass [4, 19]: 70 | Plant response rating, Blackgrass [4, 20]: 80 | Plant response rating, Blackgrass [4, 21]: 45 | Field Poppy plant response rating [5, 15]: 100 | Plant response rating, Field Poppy [5, 16]: 100 | Plant response rating, Field Poppy [5, 17]: 100 | Plant response rating (scale of 0 to 100), Field Poppy ([5]; Preemergence, 31 g ai/ha): 100 | Plant response rating, Field Poppy [5, 18]: 100 | Plant response rating, Field Poppy [5, 19]: 100 | Plant response rating, Field Poppy [5, 20]: 100 | Plant response rating, Field Poppy [5, 21]: 100 | Chamomile plant response rating [6, 15]: 100 | Plant response rating, Chamomile [6, 16]: 100 | Plant response rating, Chamomile [6, 17]: 100 | Plant response rating, Chamomile [6, 21]: 100 | Barley, Winter plant response rating [7, 15]: 20 | Plant response rating, Barley, Winter [7, 16]: 25 | Plant response rating, Barley, Winter [7, 17]: 25 | Plant response rating (scale of 0 to 100), Barley, Winter ([7]; Preemergence, 31 g ai/ha): 0 | Plant response rating, Barley, Winter [7, 18]: 0 | Plant response rating, Barley, Winter [7, 19]: 5 | Plant response rating, Barley, Winter [7, 20]: 5 | Plant response rating, Barley, Winter [7, 21]: 30 | Mustard, Wild plant response rating [8, 15]: 30 | Plant response rating, Mustard, Wild [8, 16]: 30 | Plant response rating, Mustard, Wild [8, 17]: 40 | Plant response rating (scale of 0 to 100), Mustard, Wild ([8]; Preemergence, 31 g ai/ha): 0 | Plant response rating, Mustard, Wild [8, 18]: 25 | Plant response rating, Mustard, Wild [8, 19]: 25 | Plant response rating, Mustard, Wild [8, 20]: 30 | Plant response rating, Mustard, Wild [8, 21]: 30 | Chickweed plant response rating [9, 15]: 100 | Plant response rating, Chickweed [9, 16]: 100 | Plant response rating, Chickweed [9, 17]: 100 | Plant response rating (scale of 0 to 100), Chickweed ([9]; Preemergence, 31 g ai/ha): 100 | Plant response rating, Chickweed [9, 18]: 100 | Plant response rating, Chickweed [9, 19]: 100 | Plant response rating, Chickweed [9, 20]: 100 | Plant response rating, Chickweed [9, 21]: 100 | Pigweed plant response rating [10, 15]: 85 | Plant response rating, Pigweed [10, 16]: 100 | Plant response rating, Pigweed [10, 17]: 100 | Plant response rating (scale of 0 to 100), Pigweed ([10]; Preemergence, 31 g ai/ha): 70 | Plant response rating, Pigweed [10, 18]: 75 | Plant response rating, Pigweed [10, 19]: 98 | Plant response rating, Pigweed [10, 20]: 100 | Plant response rating, Pigweed [10, 21]: 85 | Bromegrass, Downy plant response rating [11, 15]: 15 | Plant response rating, Bromegrass, Downy [11, 16]: 25 | Plant response rating, Bromegrass, Downy [11, 17]: 35 | Plant response rating (scale of 0 to 100), Bromegrass, Downy ([11]; Preemergence, 31 g ai/ha): 0 | Plant response rating, Bromegrass, Downy [11, 18]: 5 | Plant response rating, Bromegrass, Downy [11, 19]: 25 | Plant response rating, Bromegrass, Downy [11, 20]: 30 | Plant response rating, Bromegrass, Downy [11, 21]: 20 | Oat, Wild plant response rating [12, 15]: 15 | Plant response rating, Oat, Wild [12, 16]: 65 | Plant response rating, Oat, Wild [12, 17]: 85 | Plant response rating (scale of 0 to 100), Oat, Wild ([12]; Preemergence, 31 g ai/ha): 15 | Plant response rating, Oat, Wild [12, 18]: 30 | Plant response rating, Oat, Wild [12, 19]: 50 | Plant response rating, Oat, Wild [12, 20]: 60 | Plant response rating, Oat, Wild [12, 21]: 25 | Wheat, Winter plant response rating [13, 15]: 5 | Plant response rating, Wheat, Winter [13, 16]: 10 | Plant response rating, Wheat, Winter [13, 17]: 15 | Plant response rating (scale of 0 to 100), Wheat, Winter ([13]; Preemergence, 31 g ai/ha): 5 | Plant response rating, Wheat, Winter [13, 18]: 5 | Plant response rating, Wheat, Winter [13, 19]: 5 | Plant response rating, Wheat, Winter [13, 20]: 10 | Plant response rating, Wheat, Winter [13, 21]: 10 | Wheat, Spring plant response rating [14, 15]: 0 | Plant response rating, Wheat, Spring [14, 16]: 10 | Plant response rating, Wheat, Spring [14, 17]: 10 | Plant response rating (scale of 0 to 100), Wheat, Spring ([14]; Preemergence, 31 g ai/ha): 5 | Plant response rating, Wheat, Spring [14, 18]: 5 | Plant response rating, Wheat, Spring [14, 19]: 5 | Plant response rating, Wheat, Spring [14, 20]: 10 | Plant response rating, Wheat, Spring [14, 21]: 10
